Key:
[1] = test system: PC-3 tumor grafts; experiment: In vivo effect on PC-3 tumor grafts transplanted on mice; conditions: PC-3 cells transplanted; CV 5 or 10 mg/kg/day orally in drinking water, first to fifth week; male nude mice
Description: (§1) The in vivo effect of the AIIR blocker was examined using the PC-3 human prostatic cancer cells with less expression of AT1 receptors (obtained from American Type Culture Collection, Rockville, Md., USA), and PrSC cells. PC-3 cells (5×10^6 cells) or a mixture of PC-3 and PrSC cells (2.5×10^6 cells each; a total of 5×10^6 cells) were injected subcutaneously in the back of male nude mice of 4 weeks old for forming tumors. Tumors having a diameter of about 5 mm were formed after one week. The above-described mice were divided into three groups: CV (5 mg/kg/day) administered group, CV (10 mg/kg/day) administered group, and non-administered group (Control) (n=4 for each group). The administered groups were orally administered with a specified dose of CV dissolved in drinking water every day from the first to the fifth week after the tumorigenic injection. The size of the tumor (heterograft) on each mouse was measured every week, and the volume was calculated using the formula: major axis×minor axis×minor axis/2. The volume was expressed as relative ratio to the volume in the first week as being 1. The results are shown in FIGS. 8 (PC-3 cells were transplanted) and 9 (a mixture of PC-3 and PrSC cells was transplanted).

[2] = test system: F-1 cells; experiment: IL-6 secretion by primary-cultured F-1 cells (CLEIA); assay type: cell-based, human; conditions: AII (10 μM)+CV 10 μM; 24 hours; P<0.03 vs AII (10 μM)
Description: The primary-cultured stromal cells (F-1 cells) derived from a patient with prostatic hypertrophy were prepared as described below.
Tissues obtained from the patient were placed in a 50 mL centrifuge tube containing 20 mL of a medium (RPMI 1640, GIBCO 11835-030) supplemented with 10% (V/V) FBS (filtron) and mg/mL penicillin/streptomycin (GIBCO 15140-122), and allowed to stand at 4° C. for 1 hour or longer. Subsequently, the tissues were placed in a 10-cm dish, and cut into pieces of about 1 mm square. Blood vessels and the like were removed. At that time, to remove excessive blood (if necessary), the tissues were washed by adding 20 mL of the medium and centrifuging the mixture for 5 minutes at 1,000 rpm, followed by aspiration of the supernatant. […]
PrSC cells prepared in the same manner as Example 1, or F-1 or FT-FB cells prepared as described above were placed in a 6-well dish at 10^5 cells per well, cultured at 5% CO2 and 37° C. for 1 day (24 hours), and stimulated by the addition of TGFβ (1 ng/mL), TNFα (1 ng/mL), EGF (2.5 or 10 ng/mL), or angiotensin II (1 μM or 10 μM) (n=3). […] The culture media were collected 24 hours after adding the reagents, and the concentrations of IL-6 were determined by the CLEIA method.

[3] = test system: PrSC cells; experiment: IL-6 secretion by PrSC cells (CLEIA); assay type: cell-based, human; conditions: 24 hours
Description: PrSC cells prepared in the same manner as Example 1, or F-1 or FT-FB cells prepared as described above were placed in a 6-well dish at 10^5 cells per well, cultured at 5% CO2 and 37° C. for 1 day (24 hours), and stimulated by the addition of TGFβ (1 ng/mL), TNFα (1 ng/mL), EGF (2.5 or 10 ng/mL), or angiotensin II (1 μM or 10 μM) (n=3). CV was added as the AIIR blocker to some wells 4 hours before adding the reagents. The culture media were collected 24 hours after adding the reagents, and the concentrations of IL-6 were determined by the CLEIA method.

[4] = test system: mixed tumor grafts of PC-3 cells and PrSC cells; experiment: In vivo effect on mixed tumor grafts of PC-3 cells and PrSC cells transplanted on mice
Description: as §1

[5] = test system: PrSC cells; experiment: Proliferation of PrSC cells stimulated with angiotensin II, TGFβ or EGF (cell count, Examples 1-3); assay type: cell-based, human; conditions: 5 days
Description: A Cell Line Derived from Normal Human Prostatic stromal cells, i.e., PrSC cells, was purchased from Sanko Junyaku Co. Ltd. (Normal Human Prostate Stromal Cells, catalogue number CC-2508), and maintained by subculturing them in a phenol red-free RPMI medium under conditions of 5% CO2 and 37° C.
The PrSC cells (10^4 cells) were placed in a 12-well dish, and cultured in a phenol red-free medium containing 0.1% (W/V) BSA under conditions of 5% CO2 and 37° C. for several days. Then, 1 μM or 10 μM of angiotensin II was added. To some wells, CV (10 μM; hereinafter CV was used at this concentration unless otherwise noted) was added as an AIIR blocker 4 hours before adding angiotensin II. Each group contained four wells (n=4). After culturing the cells at 5% CO2 and 37° C. for 5 days, the number of all cells in each of the wells was counted.
The effect of an AIIR blocker was examined in the same manner as Example 1, except for that 10 ng/mL of TGFβ was used in place of angiotensin II.
The effect of an AIIR blocker was examined in the same manner as Example 1, except for that 10 ng/mL of EGF was used in place of angiotensin II.

SMILES: CCOc1nc2cccc(C(=O)OC(C)OC(=O)OC3CCCCC3)c2n1Cc1ccc(-c2ccccc2-c2nnn[nH]2)cc1 (centres unmarked) [CV, 1-(cyclohexyloxycarbonyloxy)ethyl 2-ethoxy-1-[[2′-(1H-tetrazole-5-yl)biphenyl-4-yl]methyl]-1H-benzimidazole-7-carboxylate]
- proliferation (relative tumor volume) vs Control [1]: suppression of proliferation was observed for the CV administered groups as compared to “Control”, but the effect was not so remarkable
- IL-6 secretion [2]: significantly suppressed
- IL-6 secretion ([3]; EGF (10 ng/mL)+CV (10 μM), P<0.05 vs EGF): significantly suppressed
- IL-6 secretion ([3]; TGFβ (1 ng/mL)+CV 10 μM, P<0.04 vs TGFβ): significantly suppressed
- IL-6 secretion ([3]; TNFα (1 ng/mL)+CV 10 μM, P<0.01 vs TNFα): significantly suppressed
- proliferation (relative tumor volume) vs Control ([4]; mixture of PC-3 and PrSC cells transplanted, CV 5 or 10 mg/kg/day orally in drinking water, first to fifth week, male nude mice): dose-dependently suppressed
- relative tumor volume, difference from Control ([4]; mixture of PC-3 and PrSC cells, CV 10 mg/kg/day, fourth and fifth weeks (P<0.04 and P<0.03)): significant differences
- increase in the numbers of cells ([5]; AII (1 μM)+CV 10 μM added 4 hours before, P<0.01 vs AII (1 μM)): suppressed to a level similar to that of the control group
- increase in the numbers of cells ([5]; AII (10 μM)+CV 10 μM added 4 hours before, P<0.01 vs AII (10 μM)): suppressed to a level similar to that of the control group
- increase in the number of cells ([5]; EGF 10 ng/mL + CV 10 μM, P<0.05): significantly suppressed (P<0.05) to the same level as that of the control group
- increase in the number of cells ([5]; TGFβ 10 ng/mL + CV 10 μM, P<0.05 vs TGFβ): significantly suppressed
